Reference: patent publication US20230033360A1, “COMPOUNDS AS CD73 INHIBITORS” (BioArdis LLC, priority 2019, published 2023)

target: T1, Recombinant Human 5′-Nucleotidase (CD73) (Homo sapiens, UniProt P21589); assay: CD73 Enzyme Assay (PiColorLock inorganic phosphate detection, AMP substrate); format: biochemical; conditions: human CD73 0.5 nM, AMP 30 μM, 20 min at 37° C., absorbance 635 nm; read-out: Potency (IC50)
T1 construct: CHO derived CD73 (Trp27-Lys547), with a C-terminal 6-His tag; 6-His (C); purchased R&D 5795-EN; host or cells: CHO
T1 sequence (P21589 27-547): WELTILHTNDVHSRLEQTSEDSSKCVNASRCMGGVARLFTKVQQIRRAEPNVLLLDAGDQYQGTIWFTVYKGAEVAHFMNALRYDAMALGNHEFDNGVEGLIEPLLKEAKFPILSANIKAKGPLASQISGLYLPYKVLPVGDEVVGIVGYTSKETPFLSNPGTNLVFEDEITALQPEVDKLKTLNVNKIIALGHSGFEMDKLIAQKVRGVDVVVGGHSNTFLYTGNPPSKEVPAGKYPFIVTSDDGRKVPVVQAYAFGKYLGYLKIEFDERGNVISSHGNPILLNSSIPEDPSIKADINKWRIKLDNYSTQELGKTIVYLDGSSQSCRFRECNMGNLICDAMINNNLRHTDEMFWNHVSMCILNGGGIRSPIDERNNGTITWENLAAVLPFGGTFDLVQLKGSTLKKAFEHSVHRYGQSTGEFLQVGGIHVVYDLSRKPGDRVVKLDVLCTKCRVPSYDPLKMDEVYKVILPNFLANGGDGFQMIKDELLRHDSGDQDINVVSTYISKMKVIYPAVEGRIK
Source text: Soluble recombinant CD73 catalyzes the conversion of adenosine monophosphate (AMP) to adenosine and inorganic phosphate. The phosphate detection reagent, PiColorLock™ (Innova Bioscience, Cat #303-0125) is based on the change in absorbance of the dye malachite green in the presence of inorganic phosphate (Pi) and this property can be exploited to measure any enzyme that generates Pi. Recombinant Human 5′-Nucleotidase (CD73) (R&D #5795-EN, CHO derived CD73 (Trp27-Lys547), with a C-terminal 6-His tag) was used in the enzymatic assay. This assay, run in a 384-well plate format (Corning® NBS™ 384 well plates, Cat #3640), is a generic method for measuring inorganic phosphate. The basic assay procedure involves two steps: 1) Enzyme reaction: The CD73 enzyme (R&D #5795-EN) is incubated in the presence or absence of compounds. AMP (sigma, cat #01930) is added to start the […] reaction. 2) Detection step: Gold mix is added to the assay system, then stabilizers are added. After incubation the absorbance of the solution is read at OD 635 nm. The recorded OD signal is proportional to the enzyme activity.
Briefly, 25 μl human CD73 (0.5 nM final concentration) in the enzymatic buffer solutions (20 mM Tris, 25 mM NaCl, 1 mM MgCl2, pH 7.5, 0.005% Tween-20) were mixed with various concentrations of the test compound (dissolved in 100% DMSO). These solutions were incubated for 15 min at 25° C., and subsequently 25 μl AMP (30 μM final concentration) was added to start the reaction. The final reaction mixture of enzyme-substrate-compound was incubated for 20 min at 37° C. Meanwhile ‘Gold mix’ was prepared shortly before use by adding 1/100 vol. of accelerator to the PiColorLock™ Gold reagent. 12 μL/well of the ‘Gold mix’ was added to assay plate containing 50 μL enzyme reaction buffer and incubated at 25° C. for 5 min. 5 μL/well stabilizer was added to the assay plate and incubated at 25° C. for 30 min. The absorbance of the well solutions was measured at 635 nm on a Spark 10M instrument (TECAN).
The percent (%) inhibition at each concentration of a compound was calculated relative to the […] value in the Max and Min control wells contained within each assay plate. The Max control wells contained enzyme and substrate as 0% inhibition, and the Min control wells only contained substrate without enzyme as 100% inhibition. The concentrations and percent inhibition values for a test compound are plotted and the concentration of the compound required to achieve 50% inhibition (IC50) was determined with a four-parameter logistic dose response equation.

Row | IC50 [nM] | Compound
1 | 10 to 99 | O=P(O)(O)CP(=O)(O)OC[C@H]1OC(c2cnc3c(N4CCC(F)(F)C4)cc(Cl)nn23)[C@@H](F)[C@@H]1O (stereo partly drawn) [Example S22, (((((2R,3R,4S)-5-(6-chloro-8-(3,3-difluoropyrrolidin-1-yl)imidazo[1,2-b]pyridazin-3-yl)-4-fluoro-3-hydroxytetrahydrofuran-2-yl)methoxy)(hydroxy)phosphoryl)methyl)phosphonic acid]
2 | 1 to 9.9 | O=P(O)(O)CP(=O)(O)OC[C@H]1O[C@@H](c2csc3c(N4CCCC4)cc(Cl)nc23)[C@H](O)[C@@H]1O [Example S42, [({[(2R,3S,4R,5S)-5-[5-chloro-7-(pyrrolidin-1-yl)thieno[3,2-b]pyridin-3-yl]-3,4-dihydroxyoxolan-2-yl]methoxy}(hydroxy)phosphoryl)methyl]phosphonic acid]
3 | 10 to 99 | O=P(O)(O)CP(=O)(O)OC[C@H]1O[C@@H](c2csc3c(N4CC5CCCC5C4)cc(Cl)nc23)[C@@H](F)[C@@H]1O (stereo partly drawn) [Example S43, (((((2R,3R,4S,5S)-5-(5-chloro-7-(hexahydrocyclopenta[c]pyrrol-2 (1H)-yl)thieno[3,2-b]pyridin-3-yl)-4-fluoro-3-hydroxytetrahydrofuran-2-yl)methoxy)(hydroxy)phosphoryl)methyl)phosphonic acid]
4 | 1 to 9.9 | O=P(O)(O)CP(=O)(O)OC[C@H]1OC(c2cnc3c(NCc4ccccc4)cc(Cl)nn23)[C@H](O)[C@@H]1O (stereo partly drawn) [Example S14, (((((2R,3S,4R)-5-(8-(benzylamino)-6-chloroimidazo[1,2-b]pyridazin-3-yl)-3,4-dihydroxytetrahydrofuran-2-yl)methoxy)(hydroxy)phosphoryl)methyl)phosphonic acid]
5 | 1 to 9.9 | O=P(O)(O)CP(=O)(O)OC[C@H]1O[C@@H](c2ncc3c(N4CCCC4)cc(Cl)nn23)[C@H](O)[C@@H]1O [Example S38, [({[(2R,3S,4R,5S)-5-[2-chloro-4-(pyrrolidin-1-yl)imidazo[1,5-b]pyridazin-7-yl]-3,4-dihydroxyoxolan-2-yl]methoxy}(hydroxy)phosphoryl)methyl]phosphonic acid]
6 | 1 to 9.9 | O=P(O)(O)CP(=O)(O)OC[C@H]1O[C@@H](c2cnc3c(N4CCC[C@H]4c4ccccc4F)cc(Cl)nn23)[C@H](O)[C@@H]1O [Example S34, (((((2R,3S,4R,5S)-5-(6-chloro-8-((S)-2-(2-fluorophenyl)pyrrolidin-1-yl)imidazo[1,2-b]pyridazin-3-yl)-3,4-dihydroxytetrahydrofuran-2-yl)methoxy)(hydroxy)phosphoryl)methyl)phosphonic acid]
7 | 1 to 9.9 | O=P(O)(O)CP(=O)(O)OC[C@H]1OC(c2cnc3c(NC4CCOC4)cc(Cl)nn23)[C@H](O)[C@@H]1O (stereo partly drawn) [Example S12, (((((2R,3S,4R)-5-(6-chloro-8-((tetrahydrofuran-3-yl)amino)imidazo[1,2-b]pyridazin-3-yl)-3,4-dihydroxytetrahydrofuran-2-yl)methoxy)(hydroxy)phosphoryl)methyl)phosphonic acid]
8 | < 1 | O=P(O)(O)CP(=O)(O)OC[C@H]1O[C@@H](c2csc3c(NC4CCCC4)nc(Cl)nc23)[C@H](O)[C@@H]1O [Example S10, (((((2R,3S,4R,5S)-5-(2-chloro-4-(cyclopentylamino)thieno[3,2-d]pyrimidin-7-yl)-3,4-dihydroxytetrahydrofuran-2-yl)methoxy)(hydroxy)phosphoryl)methyl)phosphonic acid]
9 | < 1 | O=P(O)(O)CP(=O)(O)OC[C@H]1O[C@@H](c2cnc3c(N4CC5CCCC5C4)cc(Cl)nn23)[C@H](O)[C@@H]1O (stereo partly drawn) [Example S4, (((((2R,3S,4R,5S)-5-(6-chloro-8-(hexahydrocyclopenta[c]pyrrol-2 (1H)-yl)imidazo[1,2-b]pyridazin-3-yl)-3,4-dihydroxytetrahydrofuran-2-yl)methoxy)(hydroxy)phosphoryl)methyl) phosphonic acid]
10 | 1 to 9.9 | O=P(O)(O)CP(=O)(O)OC[C@H]1OC(c2cnc3c(NCc4ccccc4Cl)cc(Cl)nn23)[C@H](O)[C@@H]1O (stereo partly drawn) [Example S15, (((((2R,3S,4R)-5-(6-chloro-8-((2-chlorobenzyl)amino)imidazo[1,2-b]pyridazin-3-yl)-3,4-dihydroxytetrahydrofuran-2-yl)methoxy)(hydroxy)phosphoryl)methyl)phosphonic acid]
11 | 10 to 99 | O=P(O)(O)CP(=O)(O)OC[C@H]1O[C@@H](c2csc3c(N4CC5CCCC5C4)nc(Cl)nc23)[C@@H](F)[C@@H]1O (stereo partly drawn) [Example S44, [({[(2R,3R,4S,5S)-5-(2-chloro-4-{hexahydro-1H-cyclopenta[c]pyrrol-2-yl}thieno[3,2-d]pyrimidin-7-yl)-4-fluoro-3-hydroxyoxolan-2-yl]methoxy}(hydroxy)phosphoryl)methyl]phosphonic acid]
12 | 1 to 9.9 | C[C@H](Nc1cc(Cl)nn2c([C@@H]3O[C@H](COP(=O)(O)CP(=O)(O)O)[C@@H](O)[C@H]3O)cnc12)c1ccccc1F [Example S2, [({[(2R,3S,4R,5S)-5-(6-chloro-8-{[(1S)-1-(2-fluorophenyl)ethyl]amino}imidazo[1,2-b]pyridazin-3-yl)-3,4-dihydroxyoxolan-2-yl]methoxy}(hydroxy)phosphoryl)methyl]phosphonic acid]
13 | 1 to 9.9 | O=P(O)(O)CP(=O)(O)OC[C@H]1O[C@@H](c2cnc3c(NC4CC5CCC4C5)cc(Cl)nn23)[C@H](O)[C@@H]1O (stereo partly drawn) [Example S6, (((((2R,3S,4R,5S)-5-(8-(bicyclo[2.2.1]heptan-2-ylamino)-6-chloroimidazo[1,2-b]pyridazin-3-yl)-3,4-dihydroxytetrahydrofuran-2-yl)methoxy)(hydroxy)phosphoryl)methyl)phosphonic acid]
14 | < 1 | O=P(O)(O)CP(=O)(O)OC[C@H]1OC(c2cnc3c(N4CC5CC5C4)cc(Cl)nn23)[C@H](O)[C@@H]1O (stereo partly drawn) [Example S23, (((((2R,3S,4R)-5-(8-(3-azabicyclo[3.1.0]hexan-3-yl)-6-chloroimidazo[1,2-b]pyridazin-3-yl)-3,4-dihydroxytetrahydrofuran-2-yl)methoxy)(hydroxy)phosphoryl)methyl)phosphonic acid]
15 | 1 to 9.9 | O=P(O)(O)CP(=O)(O)OC[C@H]1OC(c2cnc3c(N4CCCCC4)cc(Cl)nn23)[C@H](O)[C@@H]1O (stereo partly drawn) [Example S26, (((((2R,3S,4R)-5-(6-chloro-8-(piperidin-1-yl)imidazo[1,2-b]pyridazin-3-yl)-3,4-dihydroxytetrahydrofuran-2-yl)methoxy)(hydroxy)phosphoryl)methyl)phosphonic acid]
16 | 1 to 9.9 | O=P(O)(O)CP(=O)(O)OC[C@H]1O[C@@H](c2ncc3c(N4CCc5ccccc54)cc(Cl)nn23)[C@H](O)[C@@H]1O [Example S40, [({[(2R,3S,4R,5S)-5-[2-chloro-4-(2,3-dihydroindol-1-yl)imidazo[1,5-b]pyridazin-7-yl]-3,4-dihydroxyoxolan-2-yl]methoxy}(hydroxy)phosphoryl)methyl]phosphonic acid]
17 | < 1 | O=P(O)(O)CP(=O)(O)OC[C@H]1O[C@@H](c2ncc3c(N4CC5CCCC5C4)cc(Cl)nn23)[C@H](O)[C@@H]1O (stereo partly drawn) [Example S9, [({[(2R,3S,4R,5S)-5-(2-chloro-4-{hexahydro-1H-cyclopenta[c]pyrrol-2-yl}imidazo[1,5-b]pyridazin-7-yl)-3,4-dihydroxyoxolan-2-yl]methoxy}(hydroxy)phosphoryl)methyl]phosphonic acid]
